Reference: patent US9309301B2 (priority 2011, dated 2016)
Read-outs that look alike come from different tables or passages of the source. One block for each compound: values may come before it. Square brackets hold non-standard residues; d marks the D form. Primed or numbered codes have the meaning given here. Ends that are not written are not given here. 40K‑TE PEG(4) = 40 kDa PEG bound to Cys thiol via thioether (from iodoacetyl-PEG); Aib = CC(C)(N)C(=O)O

Columns and labels:
Format in all cases: cell-based
GIP receptor = target: T1, GIP receptor (Homo sapiens, UniProt P48546); experiment: in vitro agonist activity at the GIP receptor (cAMP induction, luciferase reporter, HEK293 cells); details: CRE-luciferase reporter
T1 construct: expressed in transfected cells; host or cells: HEK293
T1 sequence (P48546 22-466): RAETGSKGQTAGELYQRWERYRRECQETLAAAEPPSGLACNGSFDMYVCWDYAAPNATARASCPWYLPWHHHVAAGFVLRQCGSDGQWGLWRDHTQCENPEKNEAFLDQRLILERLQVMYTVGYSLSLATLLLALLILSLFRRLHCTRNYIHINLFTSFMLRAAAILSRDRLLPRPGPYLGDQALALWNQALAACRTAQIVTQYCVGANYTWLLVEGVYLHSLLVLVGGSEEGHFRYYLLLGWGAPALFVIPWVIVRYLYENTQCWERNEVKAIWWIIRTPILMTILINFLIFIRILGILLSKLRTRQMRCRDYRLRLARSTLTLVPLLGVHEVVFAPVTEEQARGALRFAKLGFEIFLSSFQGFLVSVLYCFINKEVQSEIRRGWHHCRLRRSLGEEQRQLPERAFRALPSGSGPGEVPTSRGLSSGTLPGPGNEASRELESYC
Protocol: It is understood that a lower EC50 indicates higher activity or potency at the receptor. […] The ability of each peptide to induce cAMP was measured in a firefly luciferase-based reporter assay. […] At the end of the incubation, 100 μL of LucLite luminescence substrate reagent (Perkin Elmer, Wellesley, Mass.) were added to each well. […] In some instances, the in vitro agonist activity at the GIP receptor was also tested.

glucagon receptor = target: T2, glucagon receptor (Homo sapiens, UniProt P47871); experiment: cAMP induction, firefly luciferase reporter assay in HEK293 cells co-transfected with glucagon receptor
T2 construct: expressed in transfected cells; host or cells: HEK293
Protocol: (§1) The ability of each peptide to induce cAMP was measured in a firefly luciferase-based reporter assay. […] At the end of the incubation, 100 μL of LucLite luminescence substrate reagent (Perkin Elmer, Wellesley, Mass.) were added to each well. […] In some instances, the in vitro agonist activity at the GIP receptor was also tested.

GLP-1 receptor = target: T3, GLP-1 receptor (Homo sapiens, UniProt P43220); experiment: cAMP induction, firefly luciferase reporter assay in HEK293 cells co-transfected with GLP-1 receptor
T3 construct: expressed in transfected cells; host or cells: HEK293
Protocol: as §1

[1] = read-out: EC50 (nM) at glucagon receptor, CRE-luciferase reporter, 5 hours incubation
[2] = read-out: EC50 (nM) at GLP-1 receptor, CRE-luciferase reporter, 5 hours incubation
[3] = CRE-luciferase reporter, 5 hours incubation

T2 sequence (P47871 26-477, species assumed): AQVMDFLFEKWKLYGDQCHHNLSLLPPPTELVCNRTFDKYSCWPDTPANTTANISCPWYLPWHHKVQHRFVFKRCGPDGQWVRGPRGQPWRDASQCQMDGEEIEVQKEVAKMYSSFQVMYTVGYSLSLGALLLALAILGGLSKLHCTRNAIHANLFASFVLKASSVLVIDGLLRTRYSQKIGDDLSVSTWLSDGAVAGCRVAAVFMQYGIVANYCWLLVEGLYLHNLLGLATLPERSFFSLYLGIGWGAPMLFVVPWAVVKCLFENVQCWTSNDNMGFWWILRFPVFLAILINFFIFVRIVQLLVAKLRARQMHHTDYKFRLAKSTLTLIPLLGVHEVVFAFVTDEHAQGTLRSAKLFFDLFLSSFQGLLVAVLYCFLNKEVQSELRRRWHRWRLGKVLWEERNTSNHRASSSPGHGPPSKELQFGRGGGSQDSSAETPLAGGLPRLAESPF
T3 sequence (P43220 24-463): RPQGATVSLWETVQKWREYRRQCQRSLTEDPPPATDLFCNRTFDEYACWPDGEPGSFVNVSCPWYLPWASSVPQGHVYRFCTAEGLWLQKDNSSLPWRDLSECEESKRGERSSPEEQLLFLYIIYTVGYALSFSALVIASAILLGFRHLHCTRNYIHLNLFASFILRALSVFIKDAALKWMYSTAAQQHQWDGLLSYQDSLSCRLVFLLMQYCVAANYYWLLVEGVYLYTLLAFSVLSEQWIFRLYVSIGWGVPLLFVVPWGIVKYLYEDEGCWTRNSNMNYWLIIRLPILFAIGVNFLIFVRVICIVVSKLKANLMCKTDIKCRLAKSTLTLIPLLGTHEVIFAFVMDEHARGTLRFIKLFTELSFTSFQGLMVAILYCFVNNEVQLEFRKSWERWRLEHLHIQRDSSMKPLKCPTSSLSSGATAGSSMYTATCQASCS

Compound: 13 (H[Aib]QGTFTSDYSKYLDEKRA[Aib]EFVC(PEG 40 kDa)WLLDT-NH2) [compound 13]
- EC50 (nM) at GIP receptor (GIP receptor): no activity

Compound: 38 (H[Aib]QGTFTSDYSKYLD[Aib]KRA[Aib]EFVC(PEG 40 kDa)WLLDT-NH2) [compound 38]
- EC50 (nM) at GIP receptor (GIP receptor): no activity

Compound: 41 (H[Aib]QGTFTSDYSKYLDEKRA[Aib]EFVC(PEG 40 kDa)WLL[Aib]T-NH2) [compound 41]
- EC50 (nM) at GIP receptor (GIP receptor): no activity

Compound: 45 (H[Aib]QGTFTSDYSKYLDEKRA[Aib]EFVC(40K‑TE PEG(4))WLLDT-OH) [compound 45]
- EC50 (nM) at GIP receptor (GIP receptor): no activity

Compound: 46 (H[Aib]QGTFTSDYSKYLD[Aib]KRA[Aib]EFVC(PEG 40 kDa)WLLDGGPSSGAPPPS-NH2) [compound 46]
- EC50 (nM) at GIP receptor (GIP receptor): no activity

Compound: 47 (H[Aib]QGTFTSDYSKYLDEKRA[Aib]EFVC(PEG 40 kDa)WLLDGGPSSGAPPPS-NH2) [compound 47]
- EC50 (nM) at GIP receptor (GIP receptor): no activity

Compound: 51 (H[Aib]QGTFTSDYSKYLDEKRA[Aib]EFVC(40K‑TE PEG(4))WLL[Aib]GGPSSGAPPPS-NH2) [compound 51]
- EC50 (nM) at GIP receptor (GIP receptor): no activity

Compound: 52 (H[Aib]QGTFTSDYSKYLDEK[Aib]AKEFVC(PEG 40 kDa)WLLDT-NH2) [compound 52]
- EC50 (nM) at GIP receptor (GIP receptor): no activity

Compound: CC(C)C[C@H](NC(=O)[C@H](CC(C)C)NC(=O)[C@H](Cc1c[nH]c2ccccc12)NC(=O)[C@H](CCC(N)=O)NC(=O)[C@@H](NC(=O)[C@H](Cc1ccccc1)NC(=O)[C@H](CC(=O)O)NC(=O)[C@H](CCC(N)=O)NC(=O)[C@H](C)NC(=O)[C@H](C)NC(=O)[C@H](CCCNC(=N)N)NC(=O)[C@H](CCC(=O)O)NC(=O)[C@H](CC(=O)O)NC(=O)[C@H](CC(C)C)NC(=O)[C@H](Cc1ccc(O)cc1)NC(=O)[C@H](CCCCN)NC(=O)[C@H](CO)NC(=O)[C@H](CCCCNC(=O)CCC(=O)c1ccccc1)NC(=O)[C@H](CC(=O)O)NC(=O)[C@H](CO)NC(=O)[C@@H](NC(=O)[C@H](Cc1ccccc1)NC(=O)[C@@H](NC(=O)CNC(=O)[C@H](CCC(N)=O)NC(=O)[C@@H](CO)NC(=O)[C@@H](N)Cc1c[nH]cn1)[C@@H](C)O)[C@@H](C)O)C(C)C)C(=O)N[C@@H](CC(=O)O)C(=O)NCC(=O)NCC(=O)N1CCC[C@H]1C(=O)N[C@@H](CO)C(=O)N[C@@H](CO)C(=O)NCC(=O)N[C@@H](C)C(=O)N1CCC[C@H]1C(=O)N1CCC[C@H]1C(=O)N1CCC[C@H]1C(=O)N[C@@H](CO)C(N)=O [compound 49]
- EC50 (glucagon receptor; [3]): 0.063 nM
- EC50 (GLP-1 receptor; [3]): 0.01 nM

Results, then the compound that gave them:

- EC50 (glucagon receptor; [1]): 0.004 nM
- EC50 (GLP-1 receptor; [2]): 0.002 nM
- EC50 (GIP receptor): 0.812 nM
Compound: CCCCCCCCCCCCCCCC(=O)N[C@@H](CCC(=O)NCCCC[C@H](NC(=O)[C@H](CC(=O)O)NC(=O)[C@H](CO)NC(=O)[C@@H](NC(=O)[C@H](Cc1ccccc1)NC(=O)[C@@H](NC(=O)CNC(=O)[C@H](CCC(N)=O)NC(=O)[C@@H](CO)NC(=O)[C@@H](N)Cc1c[nH]cn1)[C@@H](C)O)[C@@H](C)O)C(=O)N[C@@H](CO)C(=O)N[C@@H](CCCCN)C(=O)N[C@@H](Cc1ccc(O)cc1)C(=O)N[C@@H](CC(C)C)C(=O)N[C@@H](CC(=O)O)C(=O)N[C@@H](CCC(=O)O)C(=O)N[C@@H](CCCNC(=N)N)C(=O)N[C@@H](C)C(=O)N[C@@H](C)C(=O)N[C@@H](CCC(N)=O)C(=O)N[C@@H](CC(=O)O)C(=O)N[C@@H](Cc1ccccc1)C(=O)N[C@H](C(=O)N[C@@H](CCC(N)=O)C(=O)N[C@@H](Cc1c[nH]c2ccccc12)C(=O)N[C@@H](CC(C)C)C(=O)N[C@@H](CC(C)C)C(=O)N[C@@H](CC(=O)O)C(=O)NCC(=O)N[C@@H](CCCNC(=N)N)C(=O)NCC(N)=O)C(C)C)C(=O)O [compound 19]

- EC50 (glucagon receptor; [1]): 0.026 nM
- EC50 (GLP-1 receptor; [2]): 0.039 nM
Compound: CC(C)C[C@H](NC(=O)[C@H](Cc1ccc(O)cc1)NC(=O)[C@H](CCCCN)NC(=O)[C@H](CO)NC(=O)[C@H](CCCCNC(=O)CC[C@H](NC(=O)CC12CC3CC(CC(C3)C1)C2)C(=O)O)NC(=O)[C@H](CC(=O)O)NC(=O)[C@H](CO)NC(=O)[C@@H](NC(=O)[C@H](Cc1ccccc1)NC(=O)[C@@H](NC(=O)CNC(=O)[C@H](CCC(N)=O)NC(=O)[C@@H](CO)NC(=O)[C@@H](N)Cc1c[nH]cn1)[C@@H](C)O)[C@@H](C)O)C(=O)N[C@@H](CC(=O)O)C(=O)N[C@@H](CCC(=O)O)C(=O)N[C@@H](CCCNC(=N)N)C(=O)N[C@@H](C)C(=O)N[C@@H](C)C(=O)N[C@@H](CCC(N)=O)C(=O)N[C@@H](CC(=O)O)C(=O)N[C@@H](Cc1ccccc1)C(=O)N[C@H](C(=O)N[C@@H](CCC(N)=O)C(=O)N[C@@H](Cc1c[nH]c2ccccc12)C(=O)N[C@@H](CC(C)C)C(=O)N[C@@H](CC(C)C)C(=O)N[C@@H](CC(=O)O)C(=O)N[C@H](C(N)=O)[C@@H](C)O)C(C)C [compound 48]

- EC50 (GIP receptor): 2.82 nM
Compound: CCCCCCCCCCCCCCCC(=O)N[C@@H](CCC(=O)NCCCC[C@H](NC(=O)[C@H](CC(=O)O)NC(=O)[C@H](CO)NC(=O)[C@@H](NC(=O)[C@H](Cc1ccccc1)NC(=O)[C@@H](NC(=O)CNC(=O)[C@H](CCC(N)=O)NC(=O)[C@@H](CO)NC(=O)[C@@H](N)Cc1c[nH]cn1)[C@@H](C)O)[C@@H](C)O)C(=O)N[C@@H](CO)C(=O)N[C@@H](CCCCN)C(=O)N[C@@H](Cc1ccc(O)cc1)C(=O)N[C@@H](CC(C)C)C(=O)N[C@@H](CC(=O)O)C(=O)N[C@@H](CCC(=O)O)C(=O)N[C@@H](CCC(N)=O)C(=O)N[C@@H](C)C(=O)N[C@@H](C)C(=O)N[C@@H](CCCCN)C(=O)N[C@@H](CCC(=O)O)C(=O)N[C@@H](Cc1ccccc1)C(=O)N[C@H](C(=O)N[C@@H](CS)C(=O)N[C@@H](Cc1c[nH]c2ccccc12)C(=O)N[C@@H](CC(C)C)C(=O)N[C@@H](CC(C)C)C(=O)N[C@@H](CC(=O)O)C(=O)N[C@H](C(N)=O)[C@@H](C)O)[C@@H](C)CC)C(=O)O [compound 64]

- EC50 (GIP receptor): 47.1 nM
Compound: CCCCCCCCCCCCCCCC(=O)N[C@@H](CCC(=O)NCCCC[C@H](NC(=O)[C@H](CC(=O)O)NC(=O)[C@H](CO)NC(=O)[C@@H](NC(=O)[C@H](Cc1ccccc1)NC(=O)[C@@H](NC(=O)CNC(=O)[C@H](CCC(N)=O)NC(=O)[C@@H](CO)NC(=O)[C@@H](N)Cc1c[nH]cn1)[C@@H](C)O)[C@@H](C)O)C(=O)N[C@@H](CO)C(=O)N[C@@H](CCCCN)C(=O)N[C@@H](Cc1ccc(O)cc1)C(=O)N[C@@H](CC(C)C)C(=O)N[C@@H](CC(=O)O)C(=O)N[C@@H](CCC(=O)O)C(=O)N[C@@H](CCC(N)=O)C(=O)N[C@@H](C)C(=O)N[C@@H](C)C(=O)N[C@@H](CCCCN)C(=O)N[C@@H](CCC(=O)O)C(=O)N[C@@H](Cc1ccccc1)C(=O)N[C@H](C(=O)N[C@@H](CS)C(=O)N[C@@H](Cc1c[nH]c2ccccc12)C(=O)N[C@@H](CC(C)C)C(=O)N[C@@H](CC(C)C)C(=O)N[C@@H](CC(=O)O)C(=O)N[C@H](C(=O)N[C@@H](CCC(=O)O)C(N)=O)[C@@H](C)O)[C@@H](C)CC)C(=O)O [compound 65]
